From ChEMBL document CHEMBL1152303, “Synthesis and biological evaluation of a series of liver-selective phosphonic acid thyroid hormone receptor agonists and their prodrugs” (J Med Chem, 2008)

Assays:
Rattus norvegicus [1] = test: Half life in Sprague-Dawley rat assessed as 3,5-Dimethyl-4-(4'-hydroxy-3'-isopropylbenzyl)phenoxy]methylphosphonic acid level at 3 mg/kg, po; assay type: ADME, organism-based; design: dose 3 mg/kg, route oral; details: in vivo
Rattus norvegicus [2] = test: Reduction in total plasma cholesterol level in cholesterol-fed orally dosed Sprague-Dawley rat after 24 hrs relative to control; assay type: functional; design: scale not given: the % may be the effect or the level left
Rattus norvegicus [3] = test: Tmax in Sprague-Dawley rat at 3 mg/kg, po; assay type: ADME, organism-based; design: dose 3 mg/kg, route oral; details: in vivo
Rattus norvegicus [4] = test: Cmax in Sprague-Dawley rat at 3 mg/kg, po; assay type: ADME, organism-based; design: dose 3 mg/kg, route oral; details: in vivo
Rattus norvegicus [5] = test: AUClast in Sprague-Dawley rat assessed as 3,5-Dimethyl-4-(4'-hydroxy-3'-isopropylbenzyl)phenoxy]methylphosphonic acid level at 3 mg/kg, po; assay type: ADME, organism-based, Plasma; design: time 0 - last, dose 3 mg/kg, route oral; details: in vivo
Rattus norvegicus [6] = test: Half life in Sprague-Dawley rat at 3 mg/kg, iv; assay type: ADME, organism-based; design: dose 3 mg/kg, route intravenous; details: in vivo
[7] = AUClast in Sprague-Dawley rat at 3 mg/kg, po; assay type: ADME, organism-based; design: time 0 - last, dose 3 mg/kg, route oral; details: plasma
Rattus norvegicus [8] = test: Reduction in total plasma cholesterol level in cholesterol-fed orally dosed Sprague-Dawley rat after 24 hrs; assay type: functional; details: po
[9] = AUClast in Sprague-Dawley rat at 3 mg/kg, iv; assay type: ADME, organism-based; design: time 0 - last, dose 3 mg/kg, route intravenous; details: plasma
Rattus norvegicus [10] = test: Half life in Sprague-Dawley rat at 3 mg/kg, po; assay type: ADME, organism-based; design: dose 3 mg/kg, route oral; details: in vivo
Rattus norvegicus [11] = test: Tmax in Sprague-Dawley rat assessed as 3,5-Dimethyl-4-(4'-hydroxy-3'-isopropylbenzyl)phenoxy]methylphosphonic acid level at 3 mg/kg, po; assay type: ADME, organism-based; design: dose 3 mg/kg, route oral; details: in vivo
Rattus norvegicus [12] = test: Tmax in Sprague-Dawley rat assessed as 3,5-Dimethyl-4-(4'-hydroxy-3'-isopropylbenzyl)phenoxy]methylphosphonic acid level at 3 mg/kg, iv; assay type: ADME, organism-based; design: dose 3 mg/kg, route intravenous; details: in vivo
[13] = Tmax in Sprague-Dawley rat at 3 mg/kg, iv; assay type: ADME, organism-based; design: dose 3 mg/kg, route intravenous; details: in vivo
Rattus norvegicus [14] = test: Mean absorption time in Sprague-Dawley rat at 3 mg/kg, po; assay type: ADME, organism-based; design: dose 3 mg/kg, route oral; details: in vivo
Rattus norvegicus [15] = test: Mean absorption time in Sprague-Dawley rat assessed as 3,5-Dimethyl-4-(4'-hydroxy-3'-isopropylbenzyl)phenoxy]methylphosphonic acid level at 3 mg/kg, po; assay type: ADME, organism-based; design: dose 3 mg/kg, route oral; details: in vivo
Rattus norvegicus [16] = test: Mean residence time in Sprague-Dawley rat assessed as 3,5-Dimethyl-4-(4'-hydroxy-3'-isopropylbenzyl)phenoxy]methylphosphonic acid level at 3 mg/kg, iv; assay type: ADME, organism-based; design: dose 3 mg/kg, route intravenous; details: in vivo
[17] = Oral bioavailability in Sprague-Dawley rat at 3 mg/kg; assay type: ADME, organism-based; details: in vivo
[18] = Mean residence time in Sprague-Dawley rat at 3 mg/kg, po; assay type: ADME, organism-based; design: dose 3 mg/kg, route oral; details: in vivo
Rattus norvegicus [19] = test: Mean residence time in Sprague-Dawley rat assessed as 3,5-Dimethyl-4-(4'-hydroxy-3'-isopropylbenzyl)phenoxy]methylphosphonic acid level at 3 mg/kg, po; assay type: ADME, organism-based; design: dose 3 mg/kg, route oral; details: in vivo
Rattus norvegicus [20] = test: AUClast in Sprague-Dawley rat assessed as 3,5-Dimethyl-4-(4'-hydroxy-3'-isopropylbenzyl)phenoxy]methylphosphonic acid level at 3 mg/kg, iv; assay type: ADME, organism-based, Plasma; design: time 0 - last, dose 3 mg/kg, route intravenous; details: in vivo
Rattus norvegicus [21] = test: Oral bioavailability in Sprague-Dawley rat assessed as 3,5-Dimethyl-4-(4'-hydroxy-3'-isopropylbenzyl)phenoxy]methylphosphonic acid level at 3 mg/kg; assay type: ADME, organism-based; details: in vivo
Rattus norvegicus [22] = test: Cmax in Sprague-Dawley rat assessed as 3,5-Dimethyl-4-(4'-hydroxy-3'-isopropylbenzyl)phenoxy]methylphosphonic acid level at 3 mg/kg, iv; assay type: ADME, organism-based; design: dose 3 mg/kg, route intravenous; details: in vivo
[23] = Mean residence time in Sprague-Dawley rat at 3 mg/kg, iv; assay type: ADME, organism-based; design: dose 3 mg/kg, route intravenous; details: in vivo
Rattus norvegicus [24] = test: Cmax in Sprague-Dawley rat assessed as 3,5-Dimethyl-4-(4'-hydroxy-3'-isopropylbenzyl)phenoxy]methylphosphonic acid level at 3 mg/kg, po; assay type: ADME, organism-based; design: dose 3 mg/kg, route oral; details: in vivo
Rattus norvegicus [25] = test: Reduction in total plasma cholesterol level in cholesterol-fed Sprague-Dawley rat at 0.5 mg/kg, po after 24 hrs; assay type: functional; design: scale not given: the % may be the effect or the level left
Rattus norvegicus [26] = test: Cmax in Sprague-Dawley rat at 3 mg/kg, iv; assay type: ADME, organism-based; design: dose 3 mg/kg, route intravenous; details: in vivo
Rattus norvegicus [27] = test: Half life in Sprague-Dawley rat assessed as 3,5-Dimethyl-4-(4'-hydroxy-3'-isopropylbenzyl)phenoxy]methylphosphonic acid level at 3 mg/kg, iv; assay type: ADME, organism-based; design: dose 3 mg/kg, route intravenous; details: in vivo

SMILES: Cc1cc(OCP2(=O)OCC[C@@H](c3cccc(Cl)c3)O2)cc(C)c1Cc1ccc(O)c(C(C)C)c1 (some centres not stated) [MB07811]
- t1/2 (Rattus norvegicus [1]): 9.25 h
- Activity (Rattus norvegicus [2]): 55%
- Tmax (Rattus norvegicus [3]): 2.1 h
- Cmax (Rattus norvegicus [4]): 12 ng/mL
- AUClast (Rattus norvegicus [5]): 135 ng·h/mL
- t1/2 (Rattus norvegicus [6]): 1.23 h
- AUC(0-t) [7]: 26 ng·h/mL
- ED50 (Rattus norvegicus [8]): 0.48 mg/kg
- AUC(0-t) [9]: 260 ng·h/mL
- t1/2 (Rattus norvegicus [10]): 0.95 h
- Tmax (Rattus norvegicus [11]): 3.6 h
- Tmax (Rattus norvegicus [12]): 0.6 h
- Tmax [13]: 0 h
- MAT (Rattus norvegicus [14]): 1.29 h
- MAT (Rattus norvegicus [15]): 3.4 h
- MRT (Rattus norvegicus [16]): 4.49 h
- bioavailability [17]: 9.9%
- MRT [18]: 2.49 h
- MRT (Rattus norvegicus [19]): 7.91 h
- AUClast (Rattus norvegicus [20]): 340 ng·h/mL
- F (Rattus norvegicus [21]): 39.2%
- Cmax (Rattus norvegicus [22]): 92 ng/mL
- MRT [23]: 1.2 h
- Cmax (Rattus norvegicus [24]): 18 ng/mL
- Activity (Rattus norvegicus [25]): 36%
- Cmax (Rattus norvegicus [26]): 600 ng/mL
- t1/2 (Rattus norvegicus [27]): 8.82 h
